Reference: article PMC12848717, “Discovery of Encrypted Peptides in a Human Matrix Metallopeptidase” (JACS Au, 2025)
Square brackets hold non-standard residues; d marks the D form. Peptide text beside a SMILES is read from it.

Experiments:
[1] = system: sheep red blood cells (SRBCs)
[2] = system: S. epidermidis ATCC 35984; assay: time-kill (killing kinetic) assay; format: cell-based; details: Fig 7D
[3] = system: human immortalized keratinocytes (HaCaT); format: cell-based
Method: (§1) Cell viability remained above 70% even at the highest tested concentrations after 72 h of incubation.

[4] = system: human epidermoid carcinoma cells (A431); format: cell-based; details: 72 h, 100 μM
Method: as §1

[5] = system: human primary dermal fibroblasts (HDF); format: cell-based
Method: as §1

A. baumannii ATCC 19606 [6] = assay: murine skin abscess infection model; format: in vivo, mouse (female CD-1); details: after 4 days; single topical dose at MIC ([…] μM r(P)YLL19, 32 μM D(P)YLL19) 2 h postinfection; CFU of homogenized skin; n = 6
Method: Six-week-old female CD-1 mice (Charles River, stock number: 18679700-022) were anesthetized with isoflurane, and the dorsal skin was shaved. A superficial linear abrasion was made using a sterile needle. A 20 μL aliquot of A. baumannii ATCC 19606, grown in LB medium to an optical density at 600 nm (OD600) of 0.5 and then washed twice with sterile PBS (pH 7.4; 9391 g for 2 min), was applied to the abraded area at a final concentration of 3.67 × 10^6 CFU mL^-1. Peptides and antibiotics were diluted in sterile water to their respective MICs and topically applied to the infection site 2 h postinfection. Untreated control mice received 20 μL of sterile PBS. At 2 and 4 days postinfection, animals were euthanized, and the wounded infected skin area was aseptically and uniformly excised. Tissue was homogenized using a bead beater (25 Hz for 20 min), serially diluted 10-fold, and plated on MacConkey agar plates for CFU quantification. Each treatment group included six mice (n = 6), with mice housed individually to prevent cross-contamination. […] Two independent experiments were conducted, each with 3 mice per treatment group. Statistical significance was assessed using one-way ANOVA followed by Dunnett's post hoc test after log10 transformation of CFU counts.

A. baumannii ATCC 19606 [7] = assay: time-kill (killing kinetic) assay; format: cell-based; details: Fig 7D

With `CC[C@@H](C)[C@@H](NC(=O)[C@@H](CCCNC(=N)N)NC(=O)[C@@H](Cc1ccccc1)NC(=O)[C@H](NC(=O)[C@@H](CC(C)C)NC(=O)[C@@H](Cc1c[nH]cn1)NC(=O)[C@@H](CCCCN)NC(=O)[C@@H](CCCCN)NC(=O)[C@@H](CCCNC(=N)N)NC(=O)[C@@H](Cc1c[nH]c2ccccc12)NC(=O)[C@@H](CCCNC(=N)N)NC(=O)CNC(=O)[C@@H](CC(C)C)NC(=O)[C@@H](CC(C)C)NC(=O)[C@@H](CC(C)C)NC(=O)[C@@H](Cc1ccc(O)cc1)NC(=O)[C@H]1CCCN1)[C@H](C)O)C(=O)N[C@H](CC(C)C)C(=O)N[C@H](CC(N)=O)C(=O)N[C@H](CC(C)C)C(=O)O` [D(P)YLL19] (H-[dP][dY][dL][dL][dL]G[dR][dW][dR][dK][dK][dH][dL][dT][dF][dR][dI][dL][dN][dL]-OH; N-terminus and C-terminus assumed) as the compound, how does the hemolytic activity [1] read?
Its hemolytic activity is “no hemolytic activity”.

What about the “time to complete bacterial eradication, peptide combined with colistin or polymyxin B” value [2] of the same compound?
Its value is ≤ 15 min.

What about the reduction in viability [3] of the same compound?
The reduction in viability was 25–30%.

And the cell viability ([3]; 72 h, 100 μM)?
Its cell viability is “above 70%”.

What about the cell viability [4] of the same compound?
Its cell viability is “above 70%”.

What about the reduction in viability [5] of the same compound?
Its reduction in viability is 25–30%.

What about the cell viability ([5]; 72 h, 100 μM) of the same compound?
Its cell viability is “above 70%”.

What about the “reduction in bacterial burden” value (A. baumannii ATCC 19606 [6]) of the same compound?
Its value is 3 to 4 orders of magnitude.

And the “time to complete bacterial eradication, peptide combined with colistin” value (A. baumannii ATCC 19606 [7])?
The value was ≤ 15 min.
